“And” between values parts separate entries of the source, which are not always exact repeats. Identical values can stand only once. Inconclusive results and toxic doses are left out. The calls were made as follows: active = survival T/C of 150% or more; inactive = T/C below 125% in these data.
System: P388 leukemia ip, CD2F1 mice, survival T/C
Experiment: NCI In Vivo Anticancer Drug Screen. Data for tumor model P388 Leukemia (intraperitoneal) in CD2F1 (CDF1) mice
Settings: endpoint: median survival time, higher = longer survival
Outline: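 Mice carrying the transplanted tumor received test compound or vehicle. Survival was recorded in each group, and the value is the treated-group measurement divided by that of the vehicle-treated control group.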

[1] = dose: 100.0 mg/kg/injection, schedule: Q01DX001 (ip), vehicle: saline
[2] = dose: 200.0 mg/kg/injection, schedule: Q01DX001 (ip), vehicle: saline
[3] = dose: 400.0 mg/kg/injection, schedule: Q01DX001 (ip), vehicle: saline
[4] = dose: 60.0 mg/kg/injection, schedule: Q01DX005 (ip), vehicle: saline with Tween-80
[5] = dose: 120.0 mg/kg/injection, schedule: Q01DX005 (ip), vehicle: saline with Tween-80
[6] = dose: 240.0 mg/kg/injection, schedule: Q01DX005 (ip), vehicle: saline with Tween-80
[7] = dose: 100.0 mg/kg/injection, schedule: Q01DX001 (ip), vehicle: Klucel (hydroxypropylcellulose) (HPC)
[8] = dose: 200.0 mg/kg/injection, schedule: Q01DX001 (ip), vehicle: Klucel (hydroxypropylcellulose) (HPC)
[9] = dose: 400.0 mg/kg/injection, schedule: Q01DX001 (ip), vehicle: Klucel (hydroxypropylcellulose) (HPC)
[10] = dose: 60.0 mg/kg/injection, schedule: Q01DX005 (ip), vehicle: Klucel (hydroxypropylcellulose) (HPC)
[11] = dose: 120.0 mg/kg/injection, schedule: Q01DX005 (ip), vehicle: Klucel (hydroxypropylcellulose) (HPC)
[12] = dose: 240.0 mg/kg/injection, schedule: Q01DX005 (ip), vehicle: Klucel (hydroxypropylcellulose) (HPC)
[13] = dose: 50.0 mg/kg/injection, schedule: Q01DX005 (ip), vehicle: saline with Tween-80
[14] = dose: 100.0 mg/kg/injection, schedule: Q01DX005 (ip), vehicle: saline with Tween-80
[15] = dose: 200.0 mg/kg/injection, schedule: Q01DX005 (ip), vehicle: saline with Tween-80
[16] = dose: 50.0 mg/kg/injection, schedule: Q01DX005 (ip), vehicle: Klucel (hydroxypropylcellulose) (HPC)
[17] = dose: 100.0 mg/kg/injection, schedule: Q01DX005 (ip), vehicle: Klucel (hydroxypropylcellulose) (HPC)
[18] = dose: 200.0 mg/kg/injection, schedule: Q01DX005 (ip), vehicle: Klucel (hydroxypropylcellulose) (HPC)
[19] = dose: 50.0 mg/kg/injection, schedule: Q01DX009 (ip), vehicle: saline with Tween-80
[20] = dose: 100.0 mg/kg/injection, schedule: Q01DX009 (ip), vehicle: saline with Tween-80
[21] = dose: 200.0 mg/kg/injection, schedule: Q01DX009 (ip), vehicle: saline with Tween-80
[22] = dose: 25.0 mg/kg/injection, schedule: Q01DX009 (ip), vehicle: saline with Tween-80

Measured: T/C

O=c1ccnc2sccn12
inactive: [1] 109 % of control | [2] 116 % of control | [3] 101 % of control

C=CN=NNc1ccc(Cl)cc1
inactive: dose: 100.0 mg/kg/injection, schedule: Q04DX003 (ip), vehicle: saline + Tween-80 + alcohol 109 % of control | dose: 200.0 mg/kg/injection, schedule: Q04DX003 (ip), vehicle: saline + Tween-80 + alcohol 108 % of control | dose: 400.0 mg/kg/injection, schedule: Q04DX003 (ip), vehicle: saline + Tween-80 + alcohol 117 % of control

Cc1c([N+](=O)[O-])oc2cc3c(cc12)CCCC3
inactive: [4] 91 % of control | [5] 93 % of control | [6] 94 % of control

C1COCCNCCOCCOCCN1
inactive: dose: 50.0 mg/kg/injection, schedule: Q01DX005 (ip), vehicle: saline 95 % of control | dose: 100.0 mg/kg/injection, schedule: Q01DX005 (ip), vehicle: saline 106 % of control | dose: 200.0 mg/kg/injection, schedule: Q01DX005 (ip), vehicle: saline 95 % of control

CC(=O)Nc1cccc2c(C)cc(=O)[nH]c12
inactive: [7] 91 % of control | [8] 97 % of control | [9] 98 % of control

COC(=O)c1nc(N)nc(C(=O)OC)c1C(=O)Cc1ccccc1
inactive: [4] 100 % of control | [5] 103 % of control

O=c1ccn2c(=O)n1CCCCn1cnc3ncnc(c31)SCCC2
inactive: dose: 50.0 mg/kg/injection, schedule: Q01DX001 (ip), vehicle: Klucel (hydroxypropylcellulose) (HPC) 94 % of control | [7] 86 % of control | [8] 90 % of control | [9] 90 % of control

CCOC(=O)C1(c2ccccc2)c2c(cnc3ccccc23)C(=O)N1C (stereo not given)
inactive: [4] 101 % of control | [5] 97 % of control | [6] 97 % of control

CC1C(=O)C23CC1CCC2C12COC(=O)C1C(C)(C)C(=O)CC2OC3=O (stereo not given)
inactive: dose: 50.0 mg/kg/injection, schedule: Q04DX002 (ip), vehicle: saline with Tween-80 105 % of control | dose: 100.0 mg/kg/injection, schedule: Q04DX002 (ip), vehicle: saline with Tween-80 93 % of control | dose: 200.0 mg/kg/injection, schedule: Q04DX002 (ip), vehicle: saline with Tween-80 94 % of control

CN(CC#CCN(C)C1=NC(=O)CC1)C1=NC(=O)CC1
inactive: [10] 92 % of control | [11] 94 % of control | [12] 100 % of control

O=C(NC(CCS(=O)(=O)NCc1ccc(S(=O)(=O)F)cc1)C(=O)OCc1ccccc1)OCc1ccccc1 (stereo not given)
inactive: dose: 12.5 mg/kg/injection, schedule: Q01DX009 (ip), vehicle: other 90 % of control | dose: 25.0 mg/kg/injection, schedule: Q01DX009 (ip), vehicle: other 89 % of control | dose: 100.0 mg/kg/injection, schedule: Q01DX009 (ip), vehicle: other 102 % of control | dose: 200.0 mg/kg/injection, schedule: Q01DX009 (ip), vehicle: other 98 % of control

CCC(CC)(C(=O)Nc1ccc2c(c1)c(=O)c1ccccc1n2C)C(=O)Nc1ccc2c(c1)c(=O)c1ccccc1n2C
inactive: [13] 100 % of control | [14] 101 % of control | [15] 105 % of control

C=C1C2(O)CCC(C2)C1(C)C (stereo not given)
inactive: [10] 108 % of control | [11] 106 % of control | [12] 100 % of control

CCCCN1C(=O)CC(SC2CC(=O)N(CCCC)C2=O)C1=O (stereo not given)
inactive: [16] 97 % of control | [17] 86 % of control | [18] 103 % of control

COc1cc(OC)c(/C=C\c2nccc3ccccc23)c(OC)c1
inactive: [19] 95 % of control | [20] 96 % of control | [21] 96 % of control

CSC(C(=O)O)c1cc(-c2c(Cl)cccc2Cl)no1 (stereo not given)
inactive: [13] 104 % of control | [14] 105 % of control | [15] 107 % of control

O=[N+]([O-])c1ccc(-c2noc(-c3cccs3)n2)cc1
inactive: [10] 95 % of control | [11] 101 % of control | [12] 97 % of control

Cc1cc2cc(C)nc(C)c2c(C)n1
inactive: [16] 94 % of control | [17] 89 % of control | [18] 92 % of control

CC(C)C(=O)c1ccco1
inactive: dose: 3.13 mg/kg/injection, schedule: Q01DX009 (ip), vehicle: saline with Tween-80 90 % of control | dose: 6.25 mg/kg/injection, schedule: Q01DX009 (ip), vehicle: saline with Tween-80 100 % of control | dose: 12.5 mg/kg/injection, schedule: Q01DX009 (ip), vehicle: saline with Tween-80 100 % of control

COc1cc2c(cc1C(C)c1ccc(OC(C)C)cc1)OCO2 (stereo not given)
inactive: dose: 25.0 mg/kg/injection, schedule: Q01DX005 (ip), vehicle: saline with Tween-80 103 % of control | [13] 98 % of control | [14] 100 % of control | [15] 98 % of control

OC(c1ccccc1)(C(F)(F)F)C(F)(F)F
inactive: [19] 110 % of control | [20] 92 % of control

N=c1sccn1CC(O)c1ccccc1 (stereo not given)
inactive: [7] 100 % of control | [8] 100 % of control

COCCNCCN1CCN(CCCN2c3ccccc3Sc3ccc(C(F)(F)F)cc32)CC1
inactive: dose: 1.56 mg/kg/injection, schedule: Q01DX009 (ip), vehicle: saline 104 % of control | dose: 3.12 mg/kg/injection, schedule: Q01DX009 (ip), vehicle: saline 100 % of control | dose: 6.25 mg/kg/injection, schedule: Q01DX009 (ip), vehicle: saline 107 % of control

Cc1ccc(OP2(=O)NC3CCCCC3N2)cc1 (stereo not given)
inactive: [16] 99 % of control | [17] 93 % of control | [18] 96 % of control

CC(C)C([N+](C)(C)C)P(=O)([O-])O (stereo not given)
inactive: [20] 100 % of control | [21] 90 % of control

CCN=C(c1ccc(NC(=O)c2ccc(C(=O)Nc3ccc(C(=NCC)N(CC)CC)cc3)c(Cl)c2)cc1)N(CC)CC
inactive: dose: 0.05 mg/kg/injection, schedule: Q01DX005 (ip), vehicle: saline 104 % of control | dose: 0.09 mg/kg/injection, schedule: Q01DX005 (ip), vehicle: saline 87 % of control | dose: 0.19 mg/kg/injection, schedule: Q01DX005 (ip), vehicle: saline 97 % of control | dose: 0.39 mg/kg/injection, schedule: Q01DX005 (ip), vehicle: saline 102 % of control and 97 % of control

CC(=O)[O][Bi]([c]1ccccc1)[c]1ccccc1
inactive: dose: 3.12 mg/kg/injection, schedule: Q01DX005 (ip), vehicle: Klucel (hydroxypropylcellulose) (HPC) 106 % of control and 108 % of control | dose: 6.25 mg/kg/injection, schedule: Q01DX005 (ip), vehicle: Klucel (hydroxypropylcellulose) (HPC) 108 % of control and 110 % of control | dose: 12.5 mg/kg/injection, schedule: Q01DX005 (ip), vehicle: Klucel (hydroxypropylcellulose) (HPC) 103 % of control and 120 % of control | dose: 25.0 mg/kg/injection, schedule: Q01DX005 (ip), vehicle: Klucel (hydroxypropylcellulose) (HPC) 118 % of control | [16] 90 % of control

CC(=O)Nc1ccccc1C(=O)C(=O)Nc1ccccc1C(=O)NN
inactive: [4] 106 % of control | [5] 89 % of control | [6] 87 % of control

COc1ccc(CSC(=S)Nc2ccc(Cl)c(C(F)(F)F)c2)cc1
inactive: [22] 95 % of control | dose: 25.0 mg/kg/injection, schedule: Q01DX009 (ip), vehicle: saline 104 % of control | [19] 98 % of control | dose: 50.0 mg/kg/injection, schedule: Q01DX009 (ip), vehicle: saline 109 % of control | dose: 50.0 mg/kg/injection, schedule: Q01DX009 (ip), vehicle: suspension in saline 106 % of control | [20] 100 % of control | dose: 100.0 mg/kg/injection, schedule: Q01DX009 (ip), vehicle: saline 104 % of control | dose: 100.0 mg/kg/injection, schedule: Q01DX009 (ip), vehicle: suspension in saline 124 % of control | [21] 91 % of control | dose: 200.0 mg/kg/injection, schedule: Q01DX009 (ip), vehicle: suspension in saline 124 % of control

CC(=O)OC(C)(C)/N=N/C(C)(C)OC(C)=O
inactive: [22] 103 % of control | [19] 101 % of control | [20] 111 % of control | [21] 100 % of control

CCOC(=O)CC(=O)Nc1sc(CC)cc1C(=O)OCC
inactive: [4] 100 % of control | [5] 94 % of control

COC(=O)CCCCCCCCCCCCC1C=CCC1 (stereo not given)
inactive: [1] 100 % of control | [2] 104 % of control | [3] 104 % of control

— PubChem BioAssay AID330 (DTP/NCI, 2004)
